Columns and labels:
[1] = Fine particle dose (FPD) of the inhaler assembly, invention versus conventional; type: physicochemical; conditions: aerodynamic diameter 1 to 5 μm, assembly of the invention relative to conventional disk-shaped inhaler
Description: (§1) Pharmacokinetic data of an assembly for an inhaler according to the different embodiments of the invention described above together with the different variants of the pharmaceutical composition of the invention including salmeterol xinafoate and fluticasone proprionate were determined in comparison to the pharmacokinetic data of a conventional assembly including a disk-shaped inhaler housing a mixture of salmeterol xinafoate and fluticasone proprionate. Such a disk shaped inhaler is for example described in the PCT application WO 2001/97886 A1.
(§2) In particular, the fine particle dose (FPD), which is the amount of particles with an aerodynamic diameter of between 1 to 5 μm, the area under the curve (AUC), corresponds to the integral of the plasma concentration of an administered pharmaceutical drug substance versus an interval of definite time and Cmax, which is the maximum concentration measured for a pharmaceutical in the blood of test persons after it was administrated and prior to the administration of a second dose, were determined.

[2] = Pharmacokinetic data (AUC, Cmax) after inhalation, invention versus conventional assembly; type: in vivo, test persons
Description: as §1, §2

SMILES | Ratio invention/conventional FPD 1-5 μm [1] | Ratio invention/conventional Point estimate Cmax ([2]; maximum concentration in blood of test persons, assembly of the invention relative to conventional disk-shaped inhaler) | Ratio invention/conventional Point estimate AUC ([2]; plasma concentration versus time, assembly of the invention relative to conventional disk-shaped inhaler) | Ratio invention/conventional Point estimate AUC ([2]; human, in vivo) | Ratio invention/conventional Point estimate Cmax ([2]; human, in vivo, inhaled or intranasal)
CCC(=O)O[C@]1(C(=O)SCF)[C@H](C)C[C@H]2[C@@H]3C[C@H](F)C4=CC(=O)C=C[C@]4(C)[C@@]3(F)[C@@H](O)C[C@@]21C [Fluticasone, fluticasone proprionate] | 0.93 | 1.66 | 1.42 | – | –
OCc1cc(C(O)CNCCCCCCOCCCCc2ccccc2)ccc1O (stereo not drawn) [Salmeterol, salmeterol xinafoate] | 0.90 | – | – | 1.25 | 1.69

— patent US20160158149A1, “Inhalable Pharmaceutical Compositions and the Inhaler Devices Containing Them” (priority 2013, published 2016)
